Results published in PMC9732253, “Inhibition of the Phosphatidylinositol-3 Kinase Pathway Using Bimiralisib in Loss-of-Function NOTCH1-Mutant Head and Neck Cancer” (The Oncologist, 2022).
“And” between values parts separate entries of the source, which are not always exact repeats. Equal entries are not always repeated.

Legend:
NOTCH1-mutant HNSCC = test: Phase II single-arm trial, tumor response by RECIST 1.1 and survival; type: in vivo, human; conditions: for Median OS / Median PFS: all 8 patients; for Median PFS: 95% CI 39-199 days
Source text: Adults with an Eastern Cooperative Oncology Group performance status of ≤2, measurable disease according to Response Evaluation Criteria in Solid Tumors (RECIST) version 1.1,[1] and histologically confirmed recurrent or metastatic (R/M) HNSCC for which no standard curative or life-prolonging therapy was available were eligible. All patients had already received platinum chemotherapy and α-PD1 immunotherapy unless unable to tolerate them. […] Safety was continuously monitored. Demographic and clinical characteristics were summarized using univariate statistics, including mean, median, and standard deviation or frequency and percentage. Objective response rate was summarized by frequency and percentage with a 2-sided 95% […] CI.[5] Duration of response, PFS, and overall survival were analyzed using the Kaplan-Meier method.[6] All statistical analyses were performed using R statistical software (version 3.6.3, R Core Team, 2020). Survival modeling was performed using the “survival” package.[7] […] Time to response was defined as the time from first study drug administration to the first documentation of response (complete or partial). Duration of response was defined as the time from the date of the first confirmed response to the first documentation of disease progression. PFS was defined as the time from first study drug administration to disease progression or death due to any cause. Overall survival was defined as the time from first study drug administration to death due to any cause.

other protein kinases = test system: other protein kinases; design: method as in PMID 28829592; conditions: biochemical assays; cited from earlier work
PI3Kα = conditions: cited from earlier work
[1] = number (%) of 6 patients evaluated for efficacy, RECIST 1.1

With `Nc1cc(C(F)(F)F)c(-c2nc(N3CCOCC3)nc(N3CCOCC3)n2)cn1` [Bimiralisib, 5-(4,6-dimorpholino-1,3,5-triazin-2-yl)-4-(trifluoromethyl)pyridin-2-amine] the Response duration (NOTCH1-mutant HNSCC; 6 evaluable patients) was 111 days, the Objective response rate (NOTCH1-mutant HNSCC; 6 evaluable patients (1/6), RECIST 1.1, 140 mg orally on 2 consecutive days weekly, 95% CI 1-58%) was 17% and the “Median TTP” value (NOTCH1-mutant HNSCC; CI: 83-inf) was 167 days (CI: 83-inf). The “Median OS” value (NOTCH1-mutant HNSCC) was 7 months, the “Median PFS” value (NOTCH1-mutant HNSCC) was 147 days (CI: 39-199) and the “Median PFS” value (NOTCH1-mutant HNSCC; listed as bimiralisib) was 147 days. For the same compound, the “Median OS” value (NOTCH1-mutant HNSCC; 95% CI 39 days-infinity) was 215 days (CI: 39-inf), the “Median OS” value (NOTCH1-mutant HNSCC; 95% CI 39 days-infinity, listed as bimiralisib) was 215 days and the “Response assessment, CR” value (NOTCH1-mutant HNSCC; [1]) was 0 (0%). For the same compound, the “Response assessment, PR” value (NOTCH1-mutant HNSCC; [1]) was 1 (17%), the “Reduction in the target lesion size” value (NOTCH1-mutant HNSCC; one patient with confirmed partial response) was 49% and the “Day of progressive disease” value (NOTCH1-mutant HNSCC; one patient with progressive disease) was 83. For the same compound, the “Reduction in the target lesion size compared with baseline, final computed tomography scan” value (NOTCH1-mutant HNSCC; patient with confirmed partial response, in study until day 157) was 45%, the “Day of disease progression” value (NOTCH1-mutant HNSCC; three patients with confirmed stable disease, one value each) was 91 days and 138 days and 167 days and the “Inhibition of other protein kinases” value (other protein kinases) was “does not significantly inhibit”. The “Inhibition of PI3Kα” value (PI3Kα) was “potently inhibits”.
